Data set [1] concerns MDA-MB-231. The data set can be described thus: cells. To be noted: Homo sapiens, MDA-MB-231, 72 h, read-out: INH.
Description: Antitumor activity against human MDA-MB-231 cells assessed as inhibition of cell viability by measuring inhibition rate at 1 uM measured after 72 hrs by CCK-8 assay relative to control
The subject of data set [2] is MDA-MB-231. The data set can be described thus: cells. To be noted: Homo sapiens, MDA-MB-231, 72 h, read-out: INH. This is another data set of the same source.
Description: Antitumor activity against human MDA-MB-231 cells assessed as inhibition of cell viability by measuring inhibition rate at 20 uM measured after 72 hrs by CCK-8 assay relative to control
The test system of data set [3] is MDA-MB-231. The data set can be described thus: cells. As to conditions: Homo sapiens, MDA-MB-231, 72 h.
Description: Antitumor activity against human MDA-MB-231 cells assessed as inhibition of cell viability by measuring inhibition rate measured after 72 hrs by CCK-8 assay relative to control
In data set [4] the target is T1, Eukaryotic elongation factor 2 kinase (Homo sapiens, UniProt O00418).
T1 sequence (O00418 whole entry): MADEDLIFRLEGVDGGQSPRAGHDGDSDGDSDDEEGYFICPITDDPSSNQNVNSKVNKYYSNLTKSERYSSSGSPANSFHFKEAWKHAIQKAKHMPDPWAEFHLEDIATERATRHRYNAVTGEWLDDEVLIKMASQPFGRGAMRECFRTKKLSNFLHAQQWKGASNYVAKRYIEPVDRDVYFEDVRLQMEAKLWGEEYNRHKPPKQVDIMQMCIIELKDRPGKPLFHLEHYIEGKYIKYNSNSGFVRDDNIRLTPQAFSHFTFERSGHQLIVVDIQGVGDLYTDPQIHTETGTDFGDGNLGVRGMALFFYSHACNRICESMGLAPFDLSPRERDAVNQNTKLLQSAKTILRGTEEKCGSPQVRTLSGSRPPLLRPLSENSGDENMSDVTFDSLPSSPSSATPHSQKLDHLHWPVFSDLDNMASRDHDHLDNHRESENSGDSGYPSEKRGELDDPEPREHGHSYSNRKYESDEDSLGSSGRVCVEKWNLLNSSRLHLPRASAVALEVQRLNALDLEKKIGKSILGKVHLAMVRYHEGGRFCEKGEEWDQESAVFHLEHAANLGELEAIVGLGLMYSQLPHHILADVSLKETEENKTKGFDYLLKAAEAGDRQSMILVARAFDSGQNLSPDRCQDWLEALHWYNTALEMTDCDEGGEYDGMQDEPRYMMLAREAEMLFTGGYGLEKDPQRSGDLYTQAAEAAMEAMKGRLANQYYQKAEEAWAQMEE
The data set is described as follows: Binding affinity to eEF2K (unknown origin) assessed as dissociation constant measured by SPR analysis. On the technique in general: Surface plasmon resonance follows binding to a sensor surface in real time, without labels.

Data set [5] can be described thus: Kinetic solubility of the compound in PBS buffer at pH 7.4 measured by HPLC analysis.
Data set [6] deals with MDA-MB-231. The data set is described as follows: cells. As to conditions: Homo sapiens, MDA-MB-231, 72 h, read-out: INH. The source holds these as a separate data set.
Description: Antitumor activity against human MDA-MB-231 cells assessed as inhibition of cell viability at 100 nM measured after 72 hrs by CCK-8 assay
A short description of data set [7]: In vivo antitumor activity against human MDA-MB-231 cells xenografted in female nude mouse assessed as tumor growth inhibition at 10 mg/kg, ip administered every other day relative to control. As to conditions: MDA-MB-231, read-out: TGI. (A xenograft is tissue or cells of one species grown in another, often human tumour cells in immunodeficient mice.)

Each structure is given as a SMILES string. ≈ marks a conversion by molar mass, not a printed value.

In the case of `Cc1ccc(-n2nc(C(=O)N3CCCC(CNC(=O)OC(C)(C)C)C3)c(=O)n(Cc3cccc(F)c3)c2=O)cc1C` (centres undefined), the inhibition at 1 µM in the data set with MDA-MB-231 [1] worked out at 91.2%. Further, the inhibition at 20 µM in the data set with MDA-MB-231 [2] was 96%. For the same molecule, 102 nM corresponded to half-maximal inhibition in the data set with MDA-MB-231 [3] (IC50). For the same molecule, the Kd (as a rule, the constant that tells how readily two partners part at equilibrium) in data set [4] is 436 nM. In data set [5], the solubility (kinetic) (commonly solubility judged after dilution from a stock solution rather than from solid) worked out at 44 µM (≈ 24.9 µg/mL).
As to `CC(=O)O[C@H]1C(=O)[C@@]2(C)[C@H]([C@H](OC(=O)c3ccccc3)[C@]3(O)C[C@H](OC(=O)[C@H](O)[C@@H](NC(=O)c4ccccc4)c4ccccc4)C(C)=C1C3(C)C)[C@]1(OC(C)=O)CO[C@@H]1C[C@@H]2O` [PACLITAXEL], the inhibition at 1 µM in the data set with MDA-MB-231 [1] came out at 88.9%. For the same molecule, the inhibition at 0.1 µM with MDA-MB-231 [6] came to 82.4%. Further, it took 38.3 nM to reach half-maximal inhibition in the data set with MDA-MB-231 [3] (IC50). Besides, the inhibition in vivo at 10 mg/kg in data set [7] was 52.7%.

The values are drawn from ChEMBL document CHEMBL5579887, “Structure-Activity Relationship Studies of Substituted 2-Phenyl-1,2,4-triazine-3,5(2H,4H)-dione Analogues: Development of Potent eEF2K Degraders against Triple-Negative Breast Cancer” (J Med Chem, 2024).
